According to US20030158041A1, “Methods of and compositions for plant defoliation” (priority 2001, published 2003):

Tested on: American upland cotton
Test: Spray treatment of mature American upland cotton, evaluated 10, 14 and 21 days after treatment
Format: in vivo
[1] = 10 days after treatment, (+) EBNG = 0.13 lb/acre
[2] = 14 days after treatment, (+) EBNG = 0.13 lb/acre
[3] = 21 days after treatment, (+) EBNG = 0.13 lbs/acre

CCC(NC(=N)N[N+](=O)[O-])c1ccccc1 (single isomer, unassigned; (+)) [(+) EBNG, (+)-1-(α-ethylbenzyl)-3-nitroguanidine]
% Dead Leaves On Plants [1]: 8.3% | % Dropped Leaves [1]: 90.0% | % Dead Leaves On Plants [2]: 5.7% | % Dropped Leaves [2]: 93.0% | % New Growth Leaves [2]: 1.0% | % Open Fruits [2]: 96.0% | % New Growth Leaves [3]: 3.7% | % Open Fruits [3]: 98.3%
